We go through 18 compounds from patent publication US9238034B2, “FN14 antagonists and therapeutic uses thereof” (THE TRANSLATIONAL GENOMICS RESEARCH INSTITUTE, priority 2013, dated 2016).

This assay concerns the target T1, Fn14-TWEAK binding (Homo sapiens, UniProt Q9NP84).
T1 construct: the human Fc fragment-tagged Fn14 extracellular domain (R&D Systems) was captured; purchased R&D Systems (Fn14-Fc); Peprotech (recombinant TWEAK)
T1 sequence (Q9NP84 28-80 limits assumed): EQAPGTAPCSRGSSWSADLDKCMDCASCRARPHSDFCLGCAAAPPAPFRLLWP
The assay can be described thus: Double sandwich ELISA small molecule screening of TWEAK binding to captured Fn14-Fc. Here is the method:
Double Sandwich ELISA. sTWEAK and sTWEAK variant proteins were synthesized as described above. The expression level of each IVTT synthesized sTWEAK protein was analyzed by western blot analysis and used in approximately equal amounts in the ELISA. To assay the binding of wild type sTWEAK and sTWEAK variants to Fn14, the human Fc fragment-tagged Fn14 extracellular domain (R&D Systems) was captured in an Immuno 96-microwell white plate by adding 100 μL of 0.025 μg/mL Fn14-Fc to wells coated with goat anti-human Fcγ fragment specific monoclonal antibody. After capture, the wells were washed 3× with Dulbecco's Phosphate Buffered Saline (DPBS) containing 0.05% Tween-20. Unbound sites were blocked by addition of 100 μL of blocking solution containing 0.05% Tween-20, 1% BSA, and 3% normal goat serum (NGS) in DPBS for 1 hr at room temperature. 0.01 μL of sTWEAK or sTWEAK variant made with the human IVTT kit or 2 μL of sTWEAK or sTWEAK variant made with the rabbit IVTT kit was diluted in 100 μL of sample diluent (DPBS+1% BSA+0.005% Tween-20) and then added to the wells for 2 hr followed by addition of 100 μL of 50 ng/mL biotinylated TWEAK detection antibody (R&D Systems) in sample diluent. Following incubation for additional 2 hr at room temperature, wells were washed 3× with DPBS containing 0.05% Tween-20 and bound biotinylated TWEAK antibody was detected by incubation with an HRP-conjugated streptavidin. The total luminescent signal was obtained using Femto ELISA kit (Pierce Biochemical) and compared to the standard curve signal obtained from the binding of 0-4000 pg/mL recombinant TWEAK (Peprotech inc) to Fn14-Fc. Using 5-parameter logistic curve fitting for standard curve analysis (Sigmaplot 11.0, SyStat Software Inc.), binding of sTWEAK or TWEAK variant to Fn14-Fc was determined. The data represents that observed for at least four replicate assays.
The small molecule screening was performed using the ELISA assay described above with minor modifications. Briefly, after capturing Fn14-Fc in the microwell plate, 80 μl of drug solution in sample diluent was added to desired wells and incubated for 2 hrs at room temperature. Subsequently, 20 μL of 2500 pg/mL (5×) TWEAK was added to each well to achieve final TWEAK concentration of 500 pg/mL and incubated for additional 2 hr at room temperature. Bound TWEAK was detected as described in the protocol above. All small molecule inhibitors were screened at 25 μM final concentration (final DMSO concentration of 0.125%) in duplicate. Cyclohexamide, a non-specific small molecule, at 25 μM concentration was used as negative control. The anti-Fn14 antibody ITEM-4, added at 2.5 μg/mL, was used as a positive control for complete blockade of TWEAK binding. Reduction in TWEAK binding due to compound addition or controls was calculated by using standard curve (Separate standard curve was obtained for every screening plate).
For orientation: In an ELISA, binding on a coated surface is turned into a signal by an enzyme label.

[1] abbreviates: Table 3, first round of screening, 25 μM, average of duplicate, read-out: % Reduction in TWEAK Binding, Average.
The mark [2] stands for this setting: Table 3, first round of screening, 25 μM, replicate 1, read-out: % Reduction in TWEAK Binding, Data 1.
Setting [3] is: Table 3, first round of screening, 25 μM, replicate 2, read-out: % Reduction in TWEAK Binding, Data 2.
Where [4] appears, read: Table 5, 25 μM, average of duplicate, read-out: % Reduction in TWEAK Binding, Average.
Setting [5] is: Table 5, 25 μM, replicate 1, read-out: % Reduction in TWEAK Binding, Data 1.
Setting [6] is: Table 5, 25 μM, replicate 2, read-out: % Reduction in TWEAK Binding, Data 2.
The mark [7] stands for this setting: first round of screening, 25 μM, read-out: average inhibition in TWEAK-Fn14 binding.
[8] abbreviates: Table 4, second screening iteration, 25 μM, average of duplicate, read-out: % Reduction in TWEAK Binding, Average.
[9] abbreviates: Table 4, second screening iteration, 25 μM, replicate 1, read-out: % Reduction in TWEAK Binding, Data 1.
Where [10] appears, read: Table 4, second screening iteration, 25 μM, replicate 2, read-out: % Reduction in TWEAK Binding, Data 2.

Where two headings read alike, the source gives them in different places.

In the case of `Cc1cc(C)n(CC(=O)NCCc2c[nH]c3ccccc23)n1` [Compound D715-0890], the inhibition at 25 µM is, setting by setting: under setting [1], 15.3%; under setting [2], 17.1%; under setting [3], 13.6%; under setting [4], 15.3%; under setting [5], 17.1%; under setting [6], 13.6%. For the same compound, the inhibition at 25 µM under setting [7] is above 15%.
`O=C(O)C[C@@H]1NC(=O)c2ccccc2NC1=O` [Compound D715-2673]: the inhibition at 25 µM reads like this: under setting [1], 14.5%; under setting [2], 14.3%; under setting [3], 14.7%; under setting [4], 14.5%; under setting [5], 14.3%; under setting [6], 14.7%. Also, the inhibition at 25 µM under setting [7] was below 15%.
As to `COc1ccccc1NC(=O)Cc1csc(NC(=O)Nc2ccccc2)n1` [Compound F042-0072], the inhibition at 25 µM by setting is: under setting [1], 10.4%; under setting [2], 13%; under setting [3], 7.81%; under setting [4], 10.4%; under setting [5], 13%; under setting [6], 7.81%.
For `O=C(NCc1n[nH]c(=O)c2ccccc12)C(=O)N1CCCCCC1` [Compound F044-0011], the inhibition at 25 µM is, setting by setting: under setting [8], 22%; under setting [9], 20.8%; under setting [10], 23.2%; under setting [4], 22%; under setting [5], 20.8%; under setting [6], 23.2%.
Regarding `CC(C)NC(=O)C(=O)NCc1n[nH]c(=O)c2ccccc12` [Compound F044-0043], the inhibition at 25 µM is, setting by setting: under setting [1], 13.7%; under setting [2], 12.8%; under setting [3], 14.7%; under setting [4], 13.7%; under setting [5], 12.8%; under setting [6], 14.7%. Further, the inhibition at 25 µM under setting [7] was below 15%.
As to `CCOCCCNC(=O)C(=O)NCc1n[nH]c(=O)c2ccccc12` [Compound F044-0058], the inhibition at 25 µM reads like this: under setting [1], 12%; under setting [2], 9.99%; under setting [3], 14.1%; under setting [4], 12%; under setting [5], 9.99%; under setting [6], 14.1%.
Consider `O=C(NCc1ccccc1)C(=O)NCc1n[nH]c(=O)c2ccccc12` [Compound F044-0075], for which the inhibition at 25 µM under setting [1] is 13%; the inhibition at 25 µM under setting [2] worked out at 13.2%; the inhibition at 25 µM under setting [3] came to 12.8%; the inhibition at 25 µM under setting [4] is 13%; the inhibition at 25 µM under setting [5] is 13.2%; the inhibition at 25 µM under setting [6] amounted to 12.8%. The inhibition at 25 µM under setting [7] is below 15%.
For `O=C(NCc1ccccc1Cl)C(=O)NCc1n[nH]c(=O)c2ccccc12` [Compound F044-0076], the inhibition at 25 µM under setting [1] was 10.9%; the inhibition at 25 µM under setting [2] came to 8.55%; the inhibition at 25 µM under setting [3] is 13.2%; the inhibition at 25 µM under setting [8] came out at 1.62%; the inhibition at 25 µM under setting [9] was -2.3%; the inhibition at 25 µM under setting [10] turned out to be 5.55%. The inhibition at 25 µM runs as follows: under setting [4], 10.9%; under setting [5], 8.55%; under setting [6], 13.2%.
As for `O=C(NCc1ccc(F)cc1)C(=O)NCc1n[nH]c(=O)c2ccccc12` [Compound F044-0077], the inhibition at 25 µM under setting [1] is 11.5%; the inhibition at 25 µM under setting [2] stood at 12.6%; the inhibition at 25 µM under setting [3] is 10.4%; the inhibition at 25 µM under setting [4] turned out to be 11.5%; the inhibition at 25 µM under setting [5] was determined as 12.6%; the inhibition at 25 µM under setting [6] was found to be 10.4%.
As for `O=C(NCc1cccnc1)C(=O)NCc1n[nH]c(=O)c2ccccc12` [Compound F044-0083], the inhibition at 25 µM reads like this: under setting [1], 11%; under setting [2], 11.1%; under setting [3], 10.8%; under setting [4], 11%; under setting [5], 11.1%; under setting [6], 10.8%.
As for `CCC(=O)Nc1ccccc1-c1nnc(SC(CC)C(=O)Nc2cccc(OC)c2)[nH]c1=O` (stereo not drawn) [Compound F151-0392], the inhibition at 25 µM by setting is: under setting [1], 11.6%; under setting [2], 9.04%; under setting [3], 14.2%; under setting [4], 11.6%; under setting [5], 9.04%; under setting [6], 14.2%.
On to `CCC(=O)Nc1ccccc1-c1nnc(SC(C)C(=O)Nc2cccc(Cl)c2C)[nH]c1=O` (stereo not drawn) [Compound F151-0419], for which the inhibition at 25 µM worked out at 10.9% under setting [1]; 8.79% under setting [2]; 13% under setting [3]; 10.9% under setting [4]; 8.79% under setting [5]; 13% under setting [6].
For the compound `CCC(=O)Nc1ccccc1-c1nnc(SC(CC)C(=O)Nc2cc(OC)cc(OC)c2)[nH]c1=O` (stereo not drawn) [Compound F151-0435], the inhibition at 25 µM reads like this: under setting [1], 15.5%; under setting [2], 18.9%; under setting [3], 12.2%; under setting [4], 15.5%; under setting [5], 18.9%; under setting [6], 12.2%. For the same compound, the inhibition at 25 µM under setting [7] is above 15%.
`CCC(=O)Nc1ccccc1-c1nnc(SCC(=O)Nc2cc(C)ccc2C)[nH]c1=O` [Compound F151-0458]: the inhibition at 25 µM under setting [1] is 11.1%; the inhibition at 25 µM under setting [2] is 10.7%; the inhibition at 25 µM under setting [3] was 11.5%; the inhibition at 25 µM under setting [4] was found to be 11.1%; the inhibition at 25 µM under setting [5] was 10.7%; the inhibition at 25 µM under setting [6] came to 11.5%.
Consider `CCC(=O)Nc1ccccc1-c1nnc(SCC(=O)Nc2ccc(OC)cc2)[nH]c1=O` [Compound F151-0485], for which the inhibition at 25 µM reads like this: under setting [1], 10.3%; under setting [2], 14.7%; under setting [3], 5.86%; under setting [4], 10.3%; under setting [5], 14.7%; under setting [6], 5.86%.
As for `O=C(CSc1ccccc1)Nc1cccc2nsnc12` [Compound F281-0079], the inhibition at 25 µM came to 14.6% under setting [8]; 15.5% under setting [9]; 13.7% under setting [10]; 14.6% under setting [4]; 15.5% under setting [5]; 13.7% under setting [6].
In the case of `O=C(CSc1nnc(-c2ccccc2)c(-c2ccccc2)n1)Nc1ccccc1` [Compound G003-0114], the inhibition at 25 µM was 13% under setting [8]; 14.7% under setting [9]; 11.3% under setting [10]; 13% under setting [4]; 14.7% under setting [5]; 11.3% under setting [6].
Regarding `O=C(CSc1nc2c(cnn2-c2ccccc2)c(=O)[nH]1)NCc1ccc(F)cc1` [Compound G873-0031], the inhibition at 25 µM is, setting by setting: under setting [1], 14.2%; under setting [2], 20.3%; under setting [3], 8.06%; under setting [4], 14.2%; under setting [5], 20.3%; under setting [6], 8.06%. Besides, the inhibition at 25 µM (first round of screening, 25 μM, read-out: single point activities / individual data points, inhibition of the Fn14-TWEAK interaction) is above 15%.
